Reference: ChEMBL document CHEMBL5537111, “Structure and function of SARS-CoV and SARS-CoV-2 main proteases and their inhibition: A comprehensive review” (Eur J Med Chem, 2023)

Assay: Inhibition of SARS-CoV-2 3CL protease Q189A mutant by FRET assay
Design: species or system Severe acute respiratory syndrome coronavirus 2

## CC1(C)CCC(CN2CCN(c3ccc(C(=O)NS(=O)(=O)c4ccc(NCC5CCOCC5)c([N+](=O)[O-])c4)c(Oc4cnc5[nH]ccc5c4)c3)CC2)=C(c2ccc(Cl)cc2)C1 [VENETOCLAX]
  IC50: 3.18 µM
